Experimental data: patent publication US11938129B2, “Methods and compositions for the treatment of vascular disease” (THE GENERAL HOSPITAL CORPORATION, priority 2018, dated 2024)
{FAM} = FAM fluorophore (/36-FAM/)

How the values were obtained:
a-SMA and SM22a = assay: immunofluorescence of contractile proteins in ligated carotids; assay type: in vivo, mouse; details: ligated carotid, in contrast to carotid VSMCs in wild type animals
Experimental: All mice used in this study were cared for under strict compliance with the Partners Institutional Animal Care and Use Committee (IACUC), regulated by the United States Public Health Service (USPHS). Carotid ligations were performed in 10 week old mice. Briefly, animals were anesthetized using intraperitoneal ketamine/xylazine (80 and 12 mg/kg, respectively) followed by a small incision in the neck to expose the carotid artery. Then the left carotid was ligated at the carotid bifurcation level using a 8-0 silk suture. At 21 days mice were sacrificed and carotids were collected for histological analysis. Approximately 98% of wild type mice developed stenotic lesions. Mice that developed thrombosis of the ligated carotid were excluded from the study (−1¬2%). Malatl knockout mice were kindly provided by Dr. David Spector (Cold Spring Harbor, N.Y.). Hdac9 flox/flox/Talgn-cre mice were generated as previously reported (10). Ezh2 fl/fl/ (STOCK Ezh2tm2Sho/J) and Myh11-cre-GFP (B6.Cg-Tg(Myh11-cre,-EGFP)2Mik/J) were crossed to generate smooth muscle cell-Ezh2 deficient mice. All above mice and wild-type mice (C57BL/6J) were purchased from Jackson laboratory. For tissue analysis, animals were euthanized through inhalational isoflurane (Sigma, St, Louis, Mo.) prior to tissue collection. All carotid ligation (left carotid) procedures were performed at 10 weeks of age. All experiments were performed on male and female animals at a 1:1 ratio.
Left and right carotids were cryosectioned using OCT standard protocol and sectioning. The right carotid artery was unligated and served as an internal control. Neoinitima analysis was performed from hematoxylin and eosin (H & E) stained horizontal cross-sections embedded in Optimal Cutting Temperature compound (OCT). Briefly, the distal 0.2 mm of carotid from the ligation suture site were discarded followed by generation of 20 slides (10 pM). Slides 1, 5, 10, and 15 were H&E stained for quantification of neointima. For quantification of the neointima, internal and external elastic lamina perimeters and medial thickness from 4 quadrants were measured and averaged using Image J software from the National Institutes of Health (NIH). Slides 2-4, 6-9, and 11-14 were used for immunofluorescence staining.
Cohorts of 10-week-old wild-type mice were treated with oral administration in drinking water of GSK343 24 hrs before left carotid ligation and following treatment for 3 weeks. GSK343 inhibitor (25 mg) was dissolved in 1 mL of DMSO to obtain a stock solution of 46 mM. Then, 250 ml of drinking water was supplemented with 250 pl of GSK343 stock solution. Control group for was given with equal volumes of sterile water. Bottles containing GSK343 were replaced with fresh water supplied with drug every 3 days. […]

[1] = delivery of fluorescently labeled GapmeR to the vasculature; assay type: in vivo, mouse; details: ligated carotid of GapmeR treated mice, not in vehicle and GSK343 treated mice

Substance: 3′-FAM-GapmeR-Malatl: fluorescently labeled GapmeR against MALAT1, GTCACAATGCATTCTA/36-FAM/ (SEQ ID NO: 2) (3' {FAM}, sugars by position and backbone not given here; LNA gapmer)
- expression of α-SMA in carotid VSMCs (a-SMA and SM22a): robust expression
- detection of 3′-FAM labeled GapmeR in ligated carotid [1]: Detection
